Drawing on ChEMBL document CHEMBL3243933, “3-Aryl-as-triazines as potential antiinflammatory agents” (1977), this text covers C/T, Ratio and Activity for five compounds.

Activity calls are given as the source filed them. The calls are words filed in the database; no cut-off is given here.

For assay [1], the system named is Rattus norvegicus. Nature of the assay: Antiinflammatory activity in rat assessed as inhibition of carrageenan-induced paw edema at 250 mg/kg administered via gavage relative to control. The class given is functional.
Assay [2] deals with Rattus norvegicus. Nature of the assay: Antiinflammatory activity in rat adjuvant-induced arthritis model assessed as mean surface area of paw at 50 mg/kg/day administered via gavage relative to control. The class given is functional.
The test system of assay [3] is Rattus norvegicus. Put plainly: Antiinflammatory activity in rat adjuvant-induced arthritis model assessed as mean surface area of paw at 250 mg/kg administered via gavage relative to control. It counts as functional, organism-based. Also on record: dose 250 mg/kg.
Assay [4] relates to Rattus norvegicus. Nature of the assay: Antiinflammatory activity in rat adjuvant-induced arthritis model assessed as mean surface area of paw at 400 mg/kg/day administered via gavage relative to control. It counts as functional.
In assay [5] the test system is Rattus norvegicus. Nature of the assay: Antiinflammatory activity in rat assessed as inhibition of carrageenan-induced paw edema at 50 mg/kg administered via gavage relative to control. The class given is functional. A general note: The carrageenan paw model is a standard test of acute inflammation.

`Clc1ccc(-c2nncnn2)cc1`: the C/T with Rattus norvegicus [1] amounted to 3.07. In addition, in the assay with Rattus norvegicus [2], the Ratio came out at 0.54.
As to `Clc1ccc(-c2nccnn2)cc1`, the result in the assay with Rattus norvegicus [3] was inactive. The C/T with Rattus norvegicus [1] came out at 2.25.
On to `Fc1ccc(-c2nncnn2)cc1`, for which the C/T in the assay on Rattus norvegicus [1] is 2.8. In addition, the Ratio with Rattus norvegicus [2] is reported as 0.46.
Consider `CC(=O)Oc1ccccc1C(=O)O` [ASPIRIN], for which, in the assay with Rattus norvegicus [4], the Ratio amounted to 0.55. Moreover, in the assay with Rattus norvegicus [5], the C/T is reported as 2.8.
As for `Fc1ccc(-c2nccnn2)cc1`, the result with Rattus norvegicus [3] was inactive. Moreover, the C/T in the assay on Rattus norvegicus [1] was 2.67.
